Test results from patent US10626144B2, “Peptide derivatives and uses thereof” (Nosopharm, priority 2014, dated 2020).
Numbered stars: 1 amine (or outer) side, 2 acyl side, 3 side chain; on linkers, the order of the positions; unused ones are H or OH. Square brackets hold non-standard residues; d marks the D form. Peptide text beside a SMILES is read from it. * marks the point of attachment. X3 = NC[C@H](OC(=O)C(F)(F)F)[C@H](N[*:1])C(=O)[*:2]; Phe(4-COOH) = N[C@@H](Cc1ccc(C(=O)O)cc1)C(=O)O; Phe(4-Cl) = N[C@@H](Cc1ccc(Cl)cc1)C(=O)O; Pro(cis-4-F) = O=C(O)[C@@H]1C[C@H](F)CN1; Pro(5S-Me) = C[C@H]1CC[C@@H](C(=O)O)N1; Dab(3S-OH) = NC[C@H](O)[C@H](N)C(=O)O; Lys(iPr) = CC(C)NCCCC[C@H](N)C(=O)O; X5 = O=C(C(N[*:1])c1cccs1)[*:2]; ΔZArg = N=C(N)NCC/C=C(\N)C(=O)O; Lys(Me) = CNCCCC[C@H](N)C(=O)O; dOrn = NCCC[C@@H](N)C(=O)O; NMeA = CN[C@@H](C)C(=O)O; Orn = NCCC[C@H](N)C(=O)O; NH(CH2)4NH2 = NCCCCN*; NHiPr = CC(C)N*

Columns and labels:
Experiment in all cases: MIC, broth microdilution (CLSI), reference strain
Conditions in all cases: CAMHB
[1] = system: Pseudomonas aeruginosa ATCC 27853
[2] = system: Escherichia coli ATCC 25922
[3] = system: Staphylococcus aureus ATCC 13709
[4] = system: Acinetobacter baumannii ATCC 19606

SMILES	Pa: MIC Pseudomonas aeruginosa ATCC 27853 [1]	Ec: MIC Escherichia coli ATCC 25922 [2]	Sa: MIC Staphylococcus aureus ATCC 13709 [3]	Ab: MIC Acinetobacter baumannii ATCC 19606 [4]
C[C@H](NC(=O)[C@@H](NC(=O)[C@@H](N)CCCCN)[C@@H](O)CN)C(=O)NCC(=O)N[C@H](CCCN)C(=O)N1C[C@@H](F)C[C@H]1C(=O)N[C@@H](Cc1cnc[nH]1)C(=O)N[C@@H](CCCCN)C(=O)N/C(=C\CCNC(=N)N)C(=O)O [24.144] (H-K[Dab(3S-OH)]AG[dOrn][Pro(cis-4-F)]HK[ΔZArg]-OH)	− (>32 μg/mL)	+ (≤32 μg/mL)	++ (≤8 μg/mL)	− (>32 μg/mL)
C[C@H](NC(=O)[C@@H](NC(=O)[C@@H](N)CCCCN)[C@@H](O)CN)C(=O)NCC(=O)N[C@H](CCCN)C(=O)N1[C@@H](C)CC[C@H]1C(=O)N[C@@H](Cc1cnc[nH]1)C(=O)N[C@@H](CCCCN)C(=O)N/C(=C\CCNC(=N)N)C(=O)O [24.145] (H-K[Dab(3S-OH)]AG[dOrn][Pro(5S-Me)]HK[ΔZArg]-OH)	− (>32 μg/mL)	+ (≤32 μg/mL)	++ (≤8 μg/mL)	− (>32 μg/mL)
C[C@H](NC(=O)[C@@H](NC(=O)[C@@H](N)CCCCN)[C@@H](O)CN)C(=O)NCC(=O)N[C@H](CCCN)C(=O)N(C)[C@@H](C)C(=O)N[C@@H](Cc1cnc[nH]1)C(=O)N[C@@H](CCCCN)C(=O)N/C(=C\CCNC(=N)N)C(=O)O [24.146] (H-K[Dab(3S-OH)]AG[dOrn][NMeA]HK[ΔZArg]-OH)	− (>32 μg/mL)	− (>32 μg/mL)	− (>32 μg/mL)	− (>32 μg/mL)
CC(C)NCCCC[C@H](N)C(=O)N[C@H](C(=O)N[C@@H](C)C(=O)NCC(=O)N[C@H](CCCN)C(=O)N1CCC[C@H]1C(=O)N[C@@H](Cc1cnc[nH]1)C(=O)N[C@@H](CCCCN)C(=O)N/C(=C\CCNC(=N)N)C(=O)O)[C@@H](O)CN [24.147] (H-[Lys(iPr)][Dab(3S-OH)]AG[dOrn]PHK[ΔZArg]-OH)	− (>32 μg/mL)	− (>32 μg/mL)	− (>32 μg/mL)	− (>32 μg/mL)
CNCCCC[C@H](N)C(=O)N[C@H](C(=O)N[C@@H](C)C(=O)NCC(=O)N[C@H](CCCN)C(=O)N1CCC[C@H]1C(=O)N[C@@H](Cc1ccc(Cl)cc1)C(=O)N[C@@H](CCCCN)C(=O)N/C(=C\CCNC(=N)N)C(=O)O)[C@@H](O)CN [24.148] (H-[Lys(Me)][Dab(3S-OH)]AG[dOrn]P[Phe(4-Cl)]K[ΔZArg]-OH)	− (>32 μg/mL)	++ (≤8 μg/mL)	++ (≤8 μg/mL)	− (>32 μg/mL)
CNCCCC[C@H](N)C(=O)N[C@H](C(=O)N[C@@H](C)C(=O)NCC(=O)N[C@H](CCCN)C(=O)N1CCC[C@H]1C(=O)N[C@@H](Cc1cnc[nH]1)C(=O)N[C@@H](CCCCN)C(=O)N/C(=C\CCNC(=N)N)C(=O)O)[C@@H](O)CN [24.149] (H-[Lys(Me)][Dab(3S-OH)]AG[dOrn]PHK[ΔZArg]-OH)	− (>32 μg/mL)	+ (≤32 μg/mL)	+ (≤32 μg/mL)	− (>32 μg/mL)
C[C@H](NC(=O)[C@@H](NC(=O)[C@@H](N)CCCN)[C@@H](O)CN)C(=O)NCC(=O)N[C@H](CCCN)C(=O)N1CCC[C@H]1C(=O)N[C@@H](Cc1cnc[nH]1)C(=O)N[C@@H](CCCCN)C(=O)N/C(=C\CCNC(=N)N)C(N)=O [24.150] (H-[Orn][Dab(3S-OH)]AG[dOrn]PHK[ΔZArg]-NH2)	− (>32 μg/mL)	+ (≤32 μg/mL)	++ (≤8 μg/mL)	− (>32 μg/mL)
CNCCCC[C@H](NC(=O)[C@H](Cc1cnc[nH]1)NC(=O)[C@@H]1CCCN1C(=O)[C@@H](CCCN)NC(=O)CNC(=O)[C@H](C)NC(=O)[C@@H](NC(=O)[C@@H](N)CCCCN)[C@@H](O)CN)C(=O)N[C@H](CCCNC(=N)N)C(N)=O [24.155] (H-K[Dab(3S-OH)]AG[dOrn]PH[Lys(Me)][dR]-NH2)	− (>32 μg/mL)	− (>32 μg/mL)	++ (≤8 μg/mL)	− (>32 μg/mL)
C[C@H](NC(=O)[C@@H](NC(=O)[C@@H](N)CCCCN)[C@@H](O)CN)C(=O)NCC(=O)N[C@H](CCCN)C(=O)N1CCC[C@H]1C(=O)NC(C(=O)N[C@@H](CCCCN)C(=O)N/C(=C\CCNC(=N)N)C(=O)O)c1cccs1 (stereo partly drawn) [24.157] (H-K[Dab(3S-OH)]AG[dOrn]P[X5]K[ΔZArg]-OH)	− (>32 μg/mL)	− (>32 μg/mL)	+ (≤32 μg/mL)	− (>32 μg/mL)
C[C@H](NC(=O)[C@@H](NC(=O)[C@@H](N)CCCCN)[C@@H](O)CN)C(=O)NCC(=O)N[C@H](CCCN)C(=O)N1CCC[C@H]1C(=O)N[C@@H](C)C(=O)N[C@@H](CCCCN)C(=O)N/C(=C\CCNC(=N)N)C(=O)O [24.158] (H-K[Dab(3S-OH)]AG[dOrn]PAK[ΔZArg]-OH)	− (>32 μg/mL)	− (>32 μg/mL)	+ (≤32 μg/mL)	− (>32 μg/mL)
COC(=O)/C(=C/CCNC(=N)N)NC(=O)[C@H](CCCCN)NC(=O)[C@H](Cc1cnc[nH]1)NC(=O)[C@@H]1CCCN1C(=O)[C@@H](CCCN)NC(=O)CNC(=O)[C@H](C)NC(=O)[C@@H](NC(=O)[C@@H](N)CCCCN)[C@@H](O)CN [24.160] (H-K[Dab(3S-OH)]AG[dOrn]PHK[ΔZArg]-OMe)	− (>32 μg/mL)	++ (≤8 μg/mL)	++ (≤8 μg/mL)	− (>32 μg/mL)
C[C@H](NC(=O)[C@@H](NC(=O)[C@@H](N)CCCCN)[C@@H](O)CN)C(=O)NCC(=O)N[C@H](CCCN)C(=O)N1CCC[C@H]1C(=O)N[C@@H](Cc1ccc(C(=O)O)cc1)C(=O)N[C@@H](CCCCN)C(=O)N/C(=C\CCNC(=N)N)C(=O)O [24.161] (H-K[Dab(3S-OH)]AG[dOrn]P[Phe(4-COOH)]K[ΔZArg]-OH)	− (>32 μg/mL)	++ (≤8 μg/mL)	++ (≤8 μg/mL)	− (>32 μg/mL)
CC(C)NC(=O)/C(=C/CCNC(=N)N)NC(=O)[C@H](CCCCN)NC(=O)[C@H](Cc1cnc[nH]1)NC(=O)[C@@H]1CCCN1C(=O)[C@@H](CCCN)NC(=O)CNC(=O)[C@H](C)NC(=O)[C@@H](NC(=O)[C@@H](N)CCCCN)[C@@H](O)CN [24.162] (H-K[Dab(3S-OH)]AG[dOrn]PHK[ΔZArg]-NHiPr)	− (>32 μg/mL)	+ (≤32 μg/mL)	++ (≤8 μg/mL)	− (>32 μg/mL)
C[C@@H](O)[C@H](NC(=O)[C@@H](NC(=O)[C@@H](N)CCCCN)[C@@H](O)CN)C(=O)NCC(=O)N[C@H](CCCN)C(=O)N1CCC[C@H]1C(=O)N[C@@H](Cc1cnc[nH]1)C(=O)N[C@@H](CCCCN)C(=O)N/C(=C\CCNC(=N)N)C(=O)O [25.3] (H-K[Dab(3S-OH)]TG[dOrn]PHK[ΔZArg]-OH)	− (>32 μg/mL)	+ (≤32 μg/mL)	+ (≤32 μg/mL)	− (>32 μg/mL)
N=C(N)NCC/C=C(\NC(=O)[C@H](CCCCN)NC(=O)[C@H](Cc1cnc[nH]1)NC(=O)[C@@H]1CCCN1C(=O)[C@@H](CCCN)NC(=O)CNC(=O)[C@H](CO)NC(=O)[C@@H](NC(=O)[C@@H](N)CCCCN)[C@@H](O)CN)C(=O)N[C@@H](CCCCN)C(=O)NCCCCN [26.1] (H-K[Dab(3S-OH)]SG[dOrn]PHK[ΔZArg]K-{NH(CH2)4NH2})	++ (≤8 μg/mL)	++ (≤8 μg/mL)	++ (≤8 μg/mL)	+ (≤32 μg/mL)
N=C(N)NCC/C=C(\NC(=O)[C@H](CCCCN)NC(=O)[C@H](Cc1cnc[nH]1)NC(=O)[C@@H]1CCCN1C(=O)[C@@H](CCCN)NC(=O)CNC(=O)[C@H](CO)NC(=O)[C@@H](NC(=O)[C@@H](N)CCCCN)[C@@H](O)CN)C(=O)O [26.2] (H-K[Dab(3S-OH)]SG[dOrn]PHK[ΔZArg]-OH)	− (>32 μg/mL)	+ (≤32 μg/mL)	+ (≤32 μg/mL)	− (>32 μg/mL)
CC(C)C[C@H](NC(=O)[C@@H](NC(=O)[C@@H](N)CCCCN)[C@@H](O)CN)C(=O)NCC(=O)N[C@H](CCCN)C(=O)N1CCC[C@H]1C(=O)N[C@@H](Cc1cnc[nH]1)C(=O)N[C@@H](CCCCN)C(=O)N/C(=C\CCNC(=N)N)C(=O)N[C@@H](CCCCN)C(=O)NCCCCN [29.1] (H-K[Dab(3S-OH)]LG[dOrn]PHK[ΔZArg]K-{NH(CH2)4NH2})	− (>32 μg/mL)	− (>32 μg/mL)	+ (≤32 μg/mL)	− (>32 μg/mL)
N=C(N)NCC/C=C(\NC(=O)[C@H](CCCCN)NC(=O)[C@H](Cc1cnc[nH]1)NC(=O)[C@@H]1CCCN1C(=O)[C@@H](CCCN)NC(=O)CNC(=O)[C@@H](NC(=O)[C@@H](NC(=O)[C@@H](N)CCCCN)[C@H](CN)OC(=O)C(F)(F)F)[C@@H](O)CN)C(=O)N[C@@H](CCCCN)C(=O)NCCCCN [32.1] (H-K[X3][Dab(3S-OH)]G[dOrn]PHK[ΔZArg]K-{NH(CH2)4NH2})	− (>32 μg/mL)	+ (≤32 μg/mL)	++ (≤8 μg/mL)	− (>32 μg/mL)
